{"source": "patent EP0526258A2", "about": "“A87689 Compounds, their production and use as phospholipase-A2 inhibitors” (ELI LILLY AND COMPANY, priority 1991, dated 1993)", "system": "lipoidalamine-induced arthritis", "assay": "Lipoidalamine-induced arthritis model", "assay_type": "in vivo", "details": "rat, positive control, 0.1 mg/kg orally", "text": "The lipoidalamine-induced arthritis test is a model of systemic inflammation and arthritis induced by the adjuvant substance N, N-dioctadecyl-N′,N′-bis(2-hydroxyethyl)propanediamine (LA) suspended in mineral oil. The disease that results is very similar to that occurring in Freund's complete adjuvant (FCA) treated rats according to Chang [Chang, Y., Pearson, C. M., and Abe, C., \"Adjuvant polyarthritis IV. Induction by a synthetic adjuvant: immunologic, histopathologic, and other studies,\" Arth. Rheum.23: 62-71, (1980)]. Inflammation occurs in many tissues but is most striking in the spleen and joints. Compounds are tested for their ability to modulate splenic and joint inflammation in established disease (treatment starts on day 9).\nThe animals (Lewis/Sprague Dawley, males, 200-220 grams) are divided into groups of 5 and housed in hanging cages with food and water ad libitum. On day 0 they are injected with 7.5 mg of LA subcutaneously at the base of the tail. On day 9 the animals are weighed and compound administration is started. The compounds are suspended, using a tissue homogenizer, in a 1% CMC solution. The screening dose is 50 mg/kg orally. Compounds are administered once daily for 5 days (days 9-13) with no dosing on day 14. On day 15 the animals are weighed again and hind paw volume measured using a water manometer. The animals are then anesthetized and bled via cardiac puncture. After the animals are euthanized, the spleen is removed and weighed and the hind feet are removed just above the ankle joint and weighed. The individual blood samples are analyzed for fibrinogen. Means and standard errors for all of these parameters are then calculated, and percent differences from the diseased (LA) control are figured. Statistical significance is determined utilizing the Dunnet T calculation on the raw data. The positive control for the LA arthritis test is dexamethasone. Dexamethasone at a dose of 0.1 mg/kg orally will inhibit paw swelling by 80-90% and spleen weight by 90-100%. […]"}
{"molecule": "C[C@@H]1C[C@H]2[C@@H]3CCC4=CC(=O)C=C[C@]4(C)[C@@]3(F)[C@@H](O)C[C@]2(C)[C@@]1(O)C(=O)CO", "note": "[Dexamethasone, dexamethasone]", "values": [{"measurement": "inhibit paw swelling", "value": "80-90%"}, {"measurement": "inhibit spleen weight", "value": "90-100%"}, {"measurement": "fibrinogen inhibited", "setting": "more variable", "value": "50-70%"}]}
